Key:
Conditions in all cases: average where tested multiple times
[1] = molecular target: T1, hBCAT1 (Homo sapiens, UniProt P54687); experiment: BCAT1 in vitro enzyme inhibition assay (resazurin/diaphorase-coupled fluorescence); assay type: biochemical
T1 sequence (P54687 1-386): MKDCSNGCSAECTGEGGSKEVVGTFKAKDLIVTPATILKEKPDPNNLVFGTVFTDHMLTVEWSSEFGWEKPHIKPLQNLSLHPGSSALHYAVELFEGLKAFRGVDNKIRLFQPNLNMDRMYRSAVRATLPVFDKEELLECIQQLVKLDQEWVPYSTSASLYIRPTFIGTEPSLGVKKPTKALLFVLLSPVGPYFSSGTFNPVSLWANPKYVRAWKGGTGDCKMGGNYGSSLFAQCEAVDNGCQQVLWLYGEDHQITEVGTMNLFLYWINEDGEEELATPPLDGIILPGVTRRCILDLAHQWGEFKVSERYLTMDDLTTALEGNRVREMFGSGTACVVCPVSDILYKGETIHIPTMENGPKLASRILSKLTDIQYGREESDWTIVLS
Procedure, shortened: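 Human BCAT1 activity read by resazurin/diaphorase-coupled fluorescence. Compounds added from 50× DMSO stocks at 1:50, giving 10-point 3-fold titrations from 100 μM top final concentration. Run in technical duplicate; repeat tests averaged.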

[2] = molecular target: T2, BCAT2 (Homo sapiens, UniProt O15382); experiment: BCAT2 in vitro cell inhibition using engineered A549 cells (KMV cell assay, 13C6-KMV by LC-MS/MS); assay type: cell-based; design: The result was an engineered A549 cell line that expressed endogenous BCAT2; endogenous in cells; host or cells: A549 cells with MUT and BCAT1 knocked out by CRISPR/CAS9
T2 sequence (O15382 28-392): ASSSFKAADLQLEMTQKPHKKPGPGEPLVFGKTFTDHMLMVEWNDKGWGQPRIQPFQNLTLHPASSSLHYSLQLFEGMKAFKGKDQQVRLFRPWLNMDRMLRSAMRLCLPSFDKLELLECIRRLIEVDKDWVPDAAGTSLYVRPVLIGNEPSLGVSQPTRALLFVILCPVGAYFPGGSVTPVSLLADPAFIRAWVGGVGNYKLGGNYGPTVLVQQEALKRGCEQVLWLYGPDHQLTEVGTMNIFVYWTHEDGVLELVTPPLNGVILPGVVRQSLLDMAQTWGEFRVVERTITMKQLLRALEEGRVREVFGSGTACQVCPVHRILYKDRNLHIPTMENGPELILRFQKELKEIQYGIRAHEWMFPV

[3] = molecular target: T2, BCAT2; experiment: BCAT2 in vitro enzyme inhibition assay (resazurin/diaphorase-coupled fluorescence); assay type: biochemical
Procedure, shortened: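 Coupled fluorescence readout: glutamate formed from L-leucine/α-ketoglutarate transamination drives GDH/NAD/diaphorase reduction of resazurin (Ex 540/Em 590). Human BCAT2 was first exposed 1 h at room temperature to compound, top final 100 μM in 3-fold, 10-point series; substrate reaction ran 1 h before SDS quench, in technical duplicate with DMSO max and enzyme-free min controls.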

IC50 [1]	IC50 [2]	IC50 [3]	SMILES
500 to 1000 nM	100 to 500 nM	≤ 100 nM	CC(=O)N1CC(NC(=O)c2ncc(C(F)F)s2)CC(n2c(-c3ccccn3)nc3cnc(-n4nccn4)cc32)C1 (stereo not drawn) [Example 121, N-(1-acetyl-5-(2-(pyridin-2-yl)-6-(2H-1,2,3-triazol-2-yl)-1H-imidazo[4,5-c]pyridin-1-yl)piperidin-3-yl)-5-(difluoromethyl)thiazole-2-carboxamide]
< 500 nM	≤ 100 nM	≤ 100 nM	O=C(N[C@H]1CCC[C@@H](n2c(-c3ccccc3F)nc3cnc(-c4nc[nH]n4)cc32)C1)c1ncc(C(F)F)s1 [Example 68, 5-(difluoromethyl)-N-[(1S,3R)-3-[2-(2-fluorophenyl)-6-(1H-1,2,4-triazol-3-yl)imidazo[4,5-c]pyridin-1-yl]cyclohexyl]thiazole-2-carboxamide]
< 500 nM	≤ 100 nM	≤ 100 nM	O=C(N[C@H]1CCC[C@@H](n2c(-c3ccccc3F)nc3cnc(-c4ccc(F)cn4)cc32)C1)c1ncc(Cl)s1 [Example 170, 5-chloro-N-((1S,3R)-3-(2-(2-fluorophenyl)-6-(5-fluoropyridin-2-yl)-1H-imidazo[4,5-c]pyridin-1-yl)cyclohexyl)thiazole-2-carboxamide]
> 5000 nM	100 to 500 nM	100 to 500 nM	O=C(NC1COCC(n2c(-c3ccccc3F)nc3cnc(-n4nccn4)cc32)C1)c1ncc(C(F)F)s1 (single isomer, unassigned) [Example 143, 5-(difluoromethyl)-N-(5-(2-(2-fluorophenyl)-6-(2H-1,2,3-triazol-2-yl)-1H-imidazo[4,5-c]pyridin-1-yl)tetrahydro-2H-pyran-3-yl)thiazole-2-carboxamide]
< 500 nM	100 to 500 nM	≤ 100 nM	O=C(N[C@H]1CCC[C@@H](n2c(C3CCCCO3)nc3cnc(-c4nc[nH]n4)cc32)C1)c1ncc(Cl)s1 (single isomer, unassigned) [Example 90]
< 500 nM	≤ 100 nM	≤ 100 nM	CC(C)Cc1nc2cnc(-c3nccs3)cc2n1[C@@H]1CCC[C@H](NC(=O)c2ncc(Cl)s2)C1 [Example 163, 5-chloro-N-((1S,3R)-3-(2-isobutyl-6-(thiazol-2-yl)-1H-imidazo[4,5-c]pyridin-1-yl)cyclohexyl)thiazole-2-carboxamide]
< 500 nM	≤ 100 nM	≤ 100 nM	O=C(N[C@H]1CCCC[C@@H](n2c(-c3ccccc3F)nc3cnc(-c4nc[nH]n4)cc32)[C@@H]1O)c1ccc(Cl)s1 [Example 405, 5-chloro-N-((1S,2R,3R)-3-(2-(2-fluorophenyl)-6-(1H-1,2,4-triazol-3-yl)-1H-imidazo[4,5-c]pyridin-1-yl)-2-hydroxycycloheptyl)thiophene-2-carboxamide]
< 500 nM	≤ 100 nM	≤ 100 nM	O=C(N[C@H]1CCC[C@@H](n2c(-c3ccccc3F)nc3cnc(-n4nccn4)cc32)C1)c1ncc(C(F)F)s1 [Example 25, 5-(difluoromethyl)-N-((1S,3R)-3-(2-(2-fluorophenyl)-6-(2H-1,2,3-triazol-2-yl)-1H-imidazo[4,5-c]pyridin-1-yl)cyclohexyl)thiazole-2-carboxamide]

From US20260159512A1, “BCAT2 INHIBITORS” (AGIOS PHARMACEUTICALS, INC., priority 2021, published 2026)
